Experimental findings from publication PMC6972607, “L‐Fucose prevention of renal ischaemia/reperfusion injury in Mice” (The FASEB Journal, 2019) are described below.

Molecules are shown by their SMILES.

This experiment addresses T1, collectin-11 (CL-11, CL-K1) (Homo sapiens, UniProt Q9BWP8).
T1 construct: gene COLEC11; recombinant homo-oligomer generated by expression of the CL-11 cDNA (isoform a)
Description: competition ELISA, rCL-11 binding to immobilised yeast invertase. On the technique in general: An ELISA detects its analyte on a solid surface through an enzyme-linked reagent.

T1 sequence (Q9BWP8 26-271): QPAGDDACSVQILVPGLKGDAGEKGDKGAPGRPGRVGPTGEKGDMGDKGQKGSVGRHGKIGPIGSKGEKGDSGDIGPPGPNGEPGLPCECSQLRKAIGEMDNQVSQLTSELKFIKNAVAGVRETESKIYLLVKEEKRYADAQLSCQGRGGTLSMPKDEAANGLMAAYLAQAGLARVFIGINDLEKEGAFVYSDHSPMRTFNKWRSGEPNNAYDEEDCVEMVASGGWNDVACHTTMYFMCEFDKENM

The IC50 is the concentration needed to halve the response being measured. A low value points to greater potency. Molecule `C[C@@H]1OC(O)[C@@H](O)[C@H](O)[C@@H]1O` (stereo partly drawn) [L-fucose] gave an IC50 of 12.1 mM. As to `OC[C@H]1OC(O)[C@@H](O)[C@@H](O)[C@@H]1O` (stereo partly drawn) [D-mannose], the 50% inhibitory concentration (IC50) amounted to 11.8 mM.
